Experimental data: PubChem BioAssay (NCI)
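Results reflect a 48-hour exposure of cells in 96-well plates to compound at five concentrations. TGI is the concentration that stops growth completely.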

What was measured:
HOP-18 NSCLC = assay: NCI-60 cell line screen, 48 h
RXF-631 renal = assay: NCI-60 cell line screen, 48 h

Cc1ccc(S(=O)(=O)c2c(N)n(CCN(C)C)c3nc4ccccc4nc23)cc1
TGI (HOP-18 NSCLC): > 100 µM

Cc1ccccc1N=NC(C(=O)c1ccccc1)C(=O)c1ccccc1
TGI (RXF-631 renal): > 100 µM

NC(=O)c1cccc([C@@H]2O[C@H](CO)[C@@H](O)[C@H]2O)c1
TGI (HOP-18 NSCLC): 68.6 µM
TGI (RXF-631 renal): 43.2 µM

Cc1cc(N(CCC#N)CCC#N)ccc1C=Nc1ccc(C(=O)NN2C(=O)/C(=C/c3ccc(N(CCC#N)CCC#N)cc3)N=C2c2cc([N+](=O)[O-])ccc2Cl)cc1
TGI (HOP-18 NSCLC): > 100 µM
TGI (RXF-631 renal): > 100 µM

COC(=O)c1ccc(NCc2cc(O)ccc2O)cc1
TGI (HOP-18 NSCLC): 27.4 µM

COc1ccc(CCNCCCC2c3ccccc3-c3ccccc32)cc1OC
TGI (HOP-18 NSCLC): 30.6 µM

CC(=O)C1=CCC2c3[nH]c4ccccc4c3CCN2C1 (stereo unspecified)
TGI (HOP-18 NSCLC): > 100 µM
TGI (RXF-631 renal): > 100 µM

COc1ccc2c(c1)CCC(OS(=O)(=O)CC13CCC(CC1=O)C3(C)C)C2=O (stereo unspecified)
TGI (HOP-18 NSCLC): 78.2 µM

CCOC(OC1=C(C#N)CCCC1)C(C)[Se]c1ccccc1 (stereo unspecified)
TGI (HOP-18 NSCLC): > 100 µM

C[N+](C)=c1nc(N2CCc3ccccc3C2)ss1
TGI (HOP-18 NSCLC): > 100 µM
TGI (RXF-631 renal): > 100 µM

NCc1cc(O)c(O)c(O)c1
TGI (HOP-18 NSCLC): > 100 µM
TGI (RXF-631 renal): > 100 µM
